Bounds are passed on as bounds.

Common to all, as to assay type: biochemical
The target of assay [1] is T1, human brain NOS (Homo sapiens, UniProt P29475).
T1 construct: Purification of NOS from human brain; from tissue; host or cells: frozen human brain; ammonium sulfate, 2',5' ADP-agarose, calmodulin-agarose
As to the kind of experiment: Inhibition of human brain NOS (citrulline formation). Conditions: Schmidt et al. 1991 procedure, 10 μM tetrahydrobiopterin included. Here is the method: Purification of NOS from human brain
Human brain NOS was prepared using variations of the procedures of Schmidt et al. (PNAS 88 365-369, 1991), Mayer et al. (Fed. Eur. Biochem. Soc. 288 187-191, 1991), and Bredt and Snyder, (PNAS 87 682-685, 1990). Briefly, frozen human brain (1050 gm) was homogenized in cold buffer A (50 mM HEPES, pH 7.5 (pH at RT) and 0.5 mM EDTA, 10 mM DTT, 3.6 L total volume) with a polytron. The mixture was centrifuged at 13,000 g for 1 hour and the supernatant was removed (about 2050 ml). To the supernatant, solid aimmonium sulfate (365 gm, about 30% of saturation) was added and stirred slowly for a total of 30 minutes. The precipitate was pelleted at 13,000 g for 30 minutes and the pellet was resuspended in ~400 mls of buffer A with 4 μM tetrahydrobiopterin, 1 μM FAD (Sigma), 1 μM FMN (Sigma). The solution was centrifuged at 41,000 g for 60 minutes. The supernatant was removed, frozen by pouring into liquid nitrogen, and stored overnight at -70° C. The mixture was thawed and passed through a 2',5' ADP-agarose column (0.4 g swelled in buffer A) at 4 ml/min. The column was washed with 100 ml buffer A, 200 ml buffer A with 500 mM NaCl, 100 ml Buffer A, then 30 ml buffer A with 5 mM NADPH. To the enzyme eluted from the column was added glycerol to 15%, CaCl2 to 1 mM, tetrahydrobiopterin to 10 μM, tween to 0.1% and FAD, FMN to 1 μM each. The enzyme was then passed through a 1 ml calmodulin-agarose column which had been equilibrated in Buffer A, 15% glycerol and 1 mM CaCl2. The column was washed with 15 ml Buffer A, 15% glycerol and 1 mM CaCl2, 15 ml of Buffer A, 15% glycerol and 5 mM EDTA, and then enzyme activity was eluted with 3 ml of Buffer A, 15% glycerol and 5 mM EDTA, 1 M NaCl. To the enzyme was added tetrahydrobiopterin to 10 μM, FAD and FMN to 1 μM, and tween to 0.1%. This solution was concentrated by centriprep-30 to a volume of approximately 500 μl. Human NOS was prepared completely analogously except the calmodulin-agarose column was not used. Enzyme activity was determined as described by Schmidt et al. 1991, except that 10 μM tetrahydrobiopterin was included in the assay.

Assay [2] addresses T2, human placental NOS (Homo sapiens, UniProt P29474).
T2 construct: Purification of NOS from human placenta; from tissue; host or cells: fresh human placenta, amnion and chorion removed; ammonium sulfate and 2',5' ADP agarose purified
Description: Inhibition of human placental NOS (citrulline formation). Conditions: 1 μM L-[14C] arginine; pH 7.4; calmodulin, CaCl2. As for the experimental part:
It is noted that the NO synthase isolated from human placenta most probably represents the endothelial constitutive isoenzyme.
Purification of NOS from human placenta.
Amion and chorion were removed from fresh placenta, which was then rinsed with 0.9% NaCl. The tissue was homogenized in a Waring blender in 3 volumes of HEDS buffer (20 mM Hepes pH 7.8, 0.1 mM EDTA, 5 mM DTT, 0.2M sucrose) plus 0.1 mM PMSF.
The homogenate was filtered through cheesecloth and then centrifuged at 1000 g for 20 min. The supernatant was recentrifuged at 27500 g for 30 min. Solid ammonium sulfate was added to the supernatant to give 32% saturation. Precipitated protein was pelleted at 25,000 g and then redissolved in a minimal volume of HEDS buffer plus 0.1 mM PMSF, 10 μg/ml leupeptin and soybean trypsin inhibitor, and 1 μg/ml pepstatin. The redissolved pellet was centrigued at 15000 g for 10 min. To the supernatant was added 1/20 volume of 2',5' ADP agarose resin (Sigma), and the slurry was mixed slowly overnight. In morning, slurry was packed into a column. The resin was sequentially washed with HEDS, 0.5M NaCl in HEDS, HEDS, and then NOS was eluted with 10 mM NADPH in HEDS. The enzyme could be concentrated by ultrafiltration and quick frozen and stored at -70° C. without loss in activity for at least 6 months.
Assay for human placental NOS
(§1) NOS was assayed for the formation of citrulline following the procedure of Schmidt et al (PNAS 88 365-369, 1991) with these modifications: 20 mM Hepes, pH 7.4, 10 μg/ml calmodulin, 2.5 mM CaCl2 2.5 mM DTT, 125 μM NADPH 10 μM H4 Biopterin, 0.5 mg/ml BSA, and 1 μM L-[^14 C] arginine (New England Nuclear). Linearity of NOS-catalyzed rate was confirmed prior to kinetic studies that used single time point determination of rate.

The target in assay [3] is T3, inducible human NOS (Homo sapiens, UniProt P35228).
T3 construct: Purification of NOS cytokine-induced human colorectal adenocarcinoma DLD-1 cells; host or cells: DLD-1 cells induced with interferon-gamma, interleukin-6, tumor necrosis factor and interleukin-1beta; 2',5' ADP Sepharose purified
As to the kind of experiment: Inhibition of inducible human NOS (citrulline formation), enzyme from cytokine-induced DLD-1 cells. The conditions noted are these: NOS from cytokine-induced DLD-1 cells; 1 μM L-[14C] arginine; pH 7.4; 10 μM FAD, no calmodulin/CaCl2. Here is the method: as §1
Purification of NOS cytokine-induced human colorectal adenocarcinoma DLD-1 cells.
DLD-1 (ATCC No. CCL 221) were grown at 37° C., 5% CO2 in RPMI 1640 medium supplemented with L- glutamin, penicillin, streptomycin, and 10% heat-inactivated fetal bovine serum. Cells were grown to confluency and then the following cocktail of cytokines were added: 100 units/ml interferon-gamma, 200 units/ml interleukin-6, 10 ng/ml tumor necrosis factor, and 0.5 ng/ml interieukin-1β. At 10-24 hr post-induction, cells were harvested by scraping and washed with phosphate-buffered saline. Pelleted cells were stored at -70° C. Purification of the induced NOS was performed at 4° C. Crude extract was prepared by three cycles of freeze/thawing cells in TDGB (20 mM tris pH 7.5, 10% glycerol, 1 mM DTT, 2 μM tetrahydrobiopterin). Extract was applied directly onto a column of 2',5' ADP sepharse (Pharmacia). Resin was sequentially washed with TDGB, 0.5 M NaCl in TDGB, TDGB. NOS was eluted with 2 mM NADPH in TDGB. BSA was immediately added to give a final concentration of 1 mg/ml. NOS could be quick frozen and stored at -70° C. without loss in activity for at least 2 months.
Assay for inducible human NOs.
The formation of citrulline was assayed as described above except that 10 μM FAD was included and calmodulin and CaCl2 were excluded from the assay mix.

As for “4-Acetamido-DL-phenylalanine [Compound 15]”, the inhibitory constant (Ki) in assay [1], in assay [2] and in assay [3] was over 50 µM throughout.

Regarding `CNC(=N)Nc1ccc(CC(N)C(=O)O)s1` (racemic) [Compound 1, 3-(5-N'-methylguanidino-2-thienyl)-DL-alanine], the Ki in assay [1] was at most 50 µM; in assay [2], at most 10 µM; in assay [3] it was over 50 µM.

Take `N=C(N)Nc1ccc(CC(N)C(=O)O)s1` (racemic) [Compound 2, 3-(5-Guanidino-2-thienyl)-DL-alanine]: the inhibition constant (Ki) was at most 10 µM in assay [1], at most 50 µM in assay [2] and at most 50 µM in assay [3].

For `NC(N)=Nc1ccccc1CC(N)C(=O)O` (racemic) [Compound 3, 2-Guanidino-DL-phenylalanine], the inhibition constant (Ki) in assay [1] was at most 0.5 µM; in assay [2], at most 0.5 µM; in assay [3], at most 10 µM.

On to `CCSC(=N)Nc1ccc(CC(N)C(=O)O)s1` (racemic) [Compound 4, 3-(5-S-ethylisothioureido-2-thienyl)-DL-alanine], for which the Ki in assay [1] was at most 50 µM; in assay [2] it was at most 10 µM; in assay [3], over 50 µM.

With `N=C(Nc1ccc(CC(N)C(=O)O)s1)NC1CC1` (racemic) [Compound 5, 3-(5-N'-cyclopropylguanidino-2-thienyl)-DL-alanine], the results for the Ki in assay [1], in assay [2] and in assay [3] were at most 10 µM, at most 10 µM and over 50 µM, respectively.

As for `C=CCNC(=N)Nc1ccc(CC(N)C(=O)O)s1` (racemic) [Compound 6, 3-(5-N'-allylguanidino-2-thienyl)-DL-alanine], the inhibitory constant (Ki) in assay [1], in assay [2] and in assay [3] was at most 10 µM in each case.

Consider `NC(=S)Nc1ccccc1CC(N)C(=O)O` (racemic) [Compound 7, 2-thioureido-DL-phenylalanine], for which the Ki in assay [1], in assay [2] and in assay [3] was at most 10 µM each time.

For `CSC(=N)Nc1ccccc1CC(N)C(=O)O` (racemic) [Compound 8, 2-(S-methylisothioureido)-DL-phenylalanine], the results for the inhibition constant Ki in assay [1], in assay [2] and in assay [3] were at most 1 µM, at most 1 µM and at most 10 µM, respectively.

As for `CCSC(=N)Nc1ccccc1CC(N)C(=O)O` (racemic) [Compound 9, 2-(S-ethylisothioureido)-DL-phenylalanine], the Ki in assay [1] is at most 0.5 µM; in assay [2], at most 0.5 µM; in assay [3], at most 1 µM.

As to `C/N=C(/N)Nc1ccccc1CC(N)C(=O)O` (racemic) [Compound 10, 2-(N'-methylguanidino)-DL-phenylalanine], the Ki was at most 0.5 µM in assay [1], at most 0.5 µM in assay [2] and at most 1 µM in assay [3].

With `NC(=NC1CC1)Nc1ccccc1CC(N)C(=O)O` (racemic) [Compound 11, 2-(N'-cyclopropylguanidino)-DL-phenylalanine], the Ki in assay [1] is at most 1 µM; in assay [2] it was at most 0.5 µM; in assay [3] it was at most 1 µM.

With `N=C(N)Nc1cccc(CC(N)C(=O)O)c1` (racemic) [Compound 12, 3-guanidino-DL-phenylalanine], the values for the Ki in assay [1], in assay [2] and in assay [3] were at most 50 µM, at most 50 µM and over 50 µM, respectively.

For the molecule `N=C(N)Nc1ccc(CC(N)C(=O)O)cc1` (racemic) [Compound 13, 4-Guanidino-DL-phenylalanine], the inhibitory constant (Ki) in assay [1], in assay [2] and in assay [3] was over 50 µM each time.

Regarding `CC(=N)Nc1cccc(CC(N)C(=O)O)c1` (racemic) [Compound 14, 3-acetamidino-DL-phenylalanine], the Ki in assay [1], in assay [2] and in assay [3] was over 50 µM each time.

For the molecule `CNC(N)=Nc1cccc(CC(N)C(=O)O)c1` (racemic) [Compound 16, 3-N-methylguanidino-DL-phenylalanine], the Ki was at most 10 µM in assay [1], at most 10 µM in assay [2] and over 50 µM in assay [3].

For the molecule `CNC(=N)Nc1ccc(CC(N)C(=O)O)cc1` (racemic) [Compound 17, 4-N-methylguanidino-DL-phenylalanine], the Ki in assay [1] was at most 50 µM; in assay [2], at most 50 µM; in assay [3] it was over 50 µM.

On to `CC(=N)Nc1ccc(CC(N)C(=O)O)s1` (racemic) [Compound 18, 3-(5-(1-iminoethyl)amino)-2-thienyl)-DL-alanine], for which the Ki was at most 50 µM in assay [1], at most 50 µM in assay [2] and at most 10 µM in assay [3].

Turning to `CC(=N)Nc1ccccc1CC(N)C(=O)O` (racemic) [Compound 19, 2-((1-iminoethyl)amino)-DL-phenylalanine], the Ki in assay [2] and in assay [3] was at most 10 µM in each case.

For `CNC(=N)NCc1ccc(CC(N)C(=O)O)s1` (racemic) [Compound 20, 3-(5-(N'-methylguanidino)methyl)-2-thienyl)-DL-alanine], the Ki in assay [1], in assay [2] and in assay [3] was over 50 µM throughout.

Turning to `N=C(NCc1ccc(CC(N)C(=O)O)s1)NC1CC1` (racemic) [Compound 21, 3-(5-(N'-cyclopropylguanidino)methyl)-2-thienyl)-DL-alanine], the Ki in assay [1], in assay [2] and in assay [3] was over 50 µM throughout.

Take `CSC(=N)NCc1ccc(CC(N)C(=O)O)s1` (racemic) [Compound 22, 3-(5-((S-methylisothioureido)methyl)-2-thienyl-DL-alanine]: the inhibition constant Ki in assay [1], in assay [2] and in assay [3] was over 50 µM in each case.

Broadly, the Ki is a dissociation constant, usually derived from enzyme kinetics or from competition with a known ligand. A higher Ki goes with lower affinity.

The values above are taken from US5874472A, “Aminoacid derivatives as no synthase inhibitors” (Glaxo Wellcome Inc., priority 1993, dated 1999).
